One data set concerns HeLa. In words: Inhibition of [3H]-adenosine uptake in human HeLa cells preincubated for 30 mins followed by [3H]-adenosine addition measured after 60 mins by PMT-based radiometric detection method. Format: cell-based. The note with it: 1 h.
A short description of data set [1]: Apparent permeability of the compound. Format: physicochemical. The note with it: not told.
Data set [2] in a line: Plasma clearance in rat. Format: ADME.
Data set [3] has as its target Sodium channel protein type 5 subunit alpha (Homo sapiens, UniProt Q14524). The data set is described as follows: Inhibition of Nav1.5 (unknown origin).
Data set [4] in a line: Oral bioavailability in rat. Format: ADME, organism-based. The note with it: in vivo.
The target of data set [5] is Voltage-dependent L-type calcium channel subunit alpha-1C (Homo sapiens, UniProt Q13936). The data set is described as follows: Inhibition of Cav1.2 (unknown origin).
Data set [6] can be described thus: Half life in rat. Format: ADME. The note with it: in vivo.
Data set [7] addresses T1, Tyrosine-protein kinase BTK (Homo sapiens, UniProt Q06187). In words: Inhibition of BTK in human PBMC.
Data set [8] is described as follows: Half life in iv dosed rat. Format: ADME, organism-based. The note with it: in vivo.
Data set [9] in a line: Clearance in iv dosed rat. Format: ADME, organism-based. The note with it: in vivo.
Data set [10] is described as follows: Unbound fraction in rat. Format: ADME.
Data set [11] has as its target T1, Tyrosine-protein kinase BTK. In words: Inhibition of 6-His-tagged recombinant full length BTK (unknown origin) expressed in baculovirus-transfected Sf9 cells using Biotin-EQEDEPEGDYFEWLE-NH2 as substrate preincubated for 60 mins followed by substrate addition measured after 120 mins by LANCE TR-FRET assay.
The target of data set [12] is Voltage-gated inwardly rectifying potassium channel KCNH2 (Homo sapiens, UniProt Q12809). The data set is described as follows: Inhibition of human ERG.
Data set [13] can be described thus: Half life in iv dosed dog. Format: ADME, organism-based, Canis lupus familiaris. The note with it: in vivo.
Data set [14] is described as follows: Clearance in iv dosed dog. Format: ADME, organism-based, Canis lupus familiaris. The note with it: in vivo.
A short description of data set [15]: Oral bioavailability in dog. Format: ADME, organism-based, Canis lupus familiaris. The note with it: in vivo.

Chain of Voltage-dependent L-type calcium channel subunit alpha-1C (Q13936 whole entry): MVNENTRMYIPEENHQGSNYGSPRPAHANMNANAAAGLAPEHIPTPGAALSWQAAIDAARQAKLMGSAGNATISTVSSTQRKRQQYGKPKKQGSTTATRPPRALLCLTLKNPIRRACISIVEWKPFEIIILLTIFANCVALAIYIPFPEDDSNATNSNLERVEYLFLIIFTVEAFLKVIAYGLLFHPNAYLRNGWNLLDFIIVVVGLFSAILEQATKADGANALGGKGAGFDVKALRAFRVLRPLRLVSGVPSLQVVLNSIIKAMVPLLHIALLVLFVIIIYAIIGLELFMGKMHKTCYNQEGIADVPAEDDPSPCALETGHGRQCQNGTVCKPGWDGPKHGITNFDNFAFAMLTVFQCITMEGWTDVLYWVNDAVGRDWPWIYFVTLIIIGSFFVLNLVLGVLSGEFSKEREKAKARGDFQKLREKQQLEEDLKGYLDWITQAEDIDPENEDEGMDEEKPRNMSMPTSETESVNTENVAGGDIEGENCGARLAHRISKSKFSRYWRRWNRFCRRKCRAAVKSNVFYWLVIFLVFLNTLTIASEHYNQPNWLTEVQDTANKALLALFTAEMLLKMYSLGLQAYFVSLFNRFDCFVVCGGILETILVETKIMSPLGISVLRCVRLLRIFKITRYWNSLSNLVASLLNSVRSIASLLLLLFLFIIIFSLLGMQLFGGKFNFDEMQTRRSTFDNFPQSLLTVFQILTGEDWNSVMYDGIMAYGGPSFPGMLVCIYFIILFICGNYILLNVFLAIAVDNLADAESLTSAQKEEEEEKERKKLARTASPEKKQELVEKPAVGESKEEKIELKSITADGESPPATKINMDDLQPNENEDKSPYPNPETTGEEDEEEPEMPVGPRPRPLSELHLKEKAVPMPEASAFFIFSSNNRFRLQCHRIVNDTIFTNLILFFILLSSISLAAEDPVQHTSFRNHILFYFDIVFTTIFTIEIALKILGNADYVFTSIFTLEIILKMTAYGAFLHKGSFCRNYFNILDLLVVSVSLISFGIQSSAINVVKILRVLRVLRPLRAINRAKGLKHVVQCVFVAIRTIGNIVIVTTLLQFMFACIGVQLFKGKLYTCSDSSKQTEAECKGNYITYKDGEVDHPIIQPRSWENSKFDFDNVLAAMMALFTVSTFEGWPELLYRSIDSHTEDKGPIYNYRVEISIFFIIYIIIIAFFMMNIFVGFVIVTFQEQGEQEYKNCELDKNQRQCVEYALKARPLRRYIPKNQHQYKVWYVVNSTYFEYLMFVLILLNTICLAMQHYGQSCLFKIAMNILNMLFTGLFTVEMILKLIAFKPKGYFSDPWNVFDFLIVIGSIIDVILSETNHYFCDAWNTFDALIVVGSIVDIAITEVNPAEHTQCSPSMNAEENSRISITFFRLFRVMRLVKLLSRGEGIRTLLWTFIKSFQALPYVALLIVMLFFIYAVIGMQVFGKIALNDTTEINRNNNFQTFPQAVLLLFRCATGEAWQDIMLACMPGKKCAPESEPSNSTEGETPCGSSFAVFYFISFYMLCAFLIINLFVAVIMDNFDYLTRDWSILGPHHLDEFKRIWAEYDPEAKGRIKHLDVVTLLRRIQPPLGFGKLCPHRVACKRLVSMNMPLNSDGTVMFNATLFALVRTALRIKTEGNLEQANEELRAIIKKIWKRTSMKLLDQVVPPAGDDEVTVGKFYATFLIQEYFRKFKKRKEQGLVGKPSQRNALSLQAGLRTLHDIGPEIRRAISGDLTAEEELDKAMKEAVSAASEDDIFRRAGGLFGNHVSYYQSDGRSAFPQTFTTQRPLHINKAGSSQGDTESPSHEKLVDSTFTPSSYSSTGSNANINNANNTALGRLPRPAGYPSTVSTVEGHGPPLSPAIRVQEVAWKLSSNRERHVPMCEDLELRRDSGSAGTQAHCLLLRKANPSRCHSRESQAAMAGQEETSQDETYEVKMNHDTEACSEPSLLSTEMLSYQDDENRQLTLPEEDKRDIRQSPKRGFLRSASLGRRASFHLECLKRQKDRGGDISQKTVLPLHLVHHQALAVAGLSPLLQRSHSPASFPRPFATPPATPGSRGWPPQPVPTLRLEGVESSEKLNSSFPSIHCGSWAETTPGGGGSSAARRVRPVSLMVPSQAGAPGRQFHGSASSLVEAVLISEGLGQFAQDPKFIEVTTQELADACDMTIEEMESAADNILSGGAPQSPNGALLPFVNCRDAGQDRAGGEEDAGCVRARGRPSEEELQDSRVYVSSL
T1 sequence (Q06187 whole entry): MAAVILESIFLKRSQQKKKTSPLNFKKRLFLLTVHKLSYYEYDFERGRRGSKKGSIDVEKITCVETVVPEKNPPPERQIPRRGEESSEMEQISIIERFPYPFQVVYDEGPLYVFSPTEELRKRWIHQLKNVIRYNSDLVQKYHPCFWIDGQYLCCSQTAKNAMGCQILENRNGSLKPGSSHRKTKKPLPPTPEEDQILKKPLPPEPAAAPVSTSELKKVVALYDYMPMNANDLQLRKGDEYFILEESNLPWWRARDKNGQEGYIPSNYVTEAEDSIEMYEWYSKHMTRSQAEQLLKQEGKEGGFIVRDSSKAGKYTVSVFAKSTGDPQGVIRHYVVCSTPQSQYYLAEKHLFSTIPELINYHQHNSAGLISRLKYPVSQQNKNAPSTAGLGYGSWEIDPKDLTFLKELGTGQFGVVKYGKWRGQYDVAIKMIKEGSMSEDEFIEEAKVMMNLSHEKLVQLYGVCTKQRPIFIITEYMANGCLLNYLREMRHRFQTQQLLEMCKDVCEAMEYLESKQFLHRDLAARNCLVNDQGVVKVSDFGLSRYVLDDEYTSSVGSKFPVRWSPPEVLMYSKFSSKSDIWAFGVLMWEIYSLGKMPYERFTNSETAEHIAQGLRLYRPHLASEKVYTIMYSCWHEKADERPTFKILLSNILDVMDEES
Chain of Sodium channel protein type 5 subunit alpha (Q14524 whole entry): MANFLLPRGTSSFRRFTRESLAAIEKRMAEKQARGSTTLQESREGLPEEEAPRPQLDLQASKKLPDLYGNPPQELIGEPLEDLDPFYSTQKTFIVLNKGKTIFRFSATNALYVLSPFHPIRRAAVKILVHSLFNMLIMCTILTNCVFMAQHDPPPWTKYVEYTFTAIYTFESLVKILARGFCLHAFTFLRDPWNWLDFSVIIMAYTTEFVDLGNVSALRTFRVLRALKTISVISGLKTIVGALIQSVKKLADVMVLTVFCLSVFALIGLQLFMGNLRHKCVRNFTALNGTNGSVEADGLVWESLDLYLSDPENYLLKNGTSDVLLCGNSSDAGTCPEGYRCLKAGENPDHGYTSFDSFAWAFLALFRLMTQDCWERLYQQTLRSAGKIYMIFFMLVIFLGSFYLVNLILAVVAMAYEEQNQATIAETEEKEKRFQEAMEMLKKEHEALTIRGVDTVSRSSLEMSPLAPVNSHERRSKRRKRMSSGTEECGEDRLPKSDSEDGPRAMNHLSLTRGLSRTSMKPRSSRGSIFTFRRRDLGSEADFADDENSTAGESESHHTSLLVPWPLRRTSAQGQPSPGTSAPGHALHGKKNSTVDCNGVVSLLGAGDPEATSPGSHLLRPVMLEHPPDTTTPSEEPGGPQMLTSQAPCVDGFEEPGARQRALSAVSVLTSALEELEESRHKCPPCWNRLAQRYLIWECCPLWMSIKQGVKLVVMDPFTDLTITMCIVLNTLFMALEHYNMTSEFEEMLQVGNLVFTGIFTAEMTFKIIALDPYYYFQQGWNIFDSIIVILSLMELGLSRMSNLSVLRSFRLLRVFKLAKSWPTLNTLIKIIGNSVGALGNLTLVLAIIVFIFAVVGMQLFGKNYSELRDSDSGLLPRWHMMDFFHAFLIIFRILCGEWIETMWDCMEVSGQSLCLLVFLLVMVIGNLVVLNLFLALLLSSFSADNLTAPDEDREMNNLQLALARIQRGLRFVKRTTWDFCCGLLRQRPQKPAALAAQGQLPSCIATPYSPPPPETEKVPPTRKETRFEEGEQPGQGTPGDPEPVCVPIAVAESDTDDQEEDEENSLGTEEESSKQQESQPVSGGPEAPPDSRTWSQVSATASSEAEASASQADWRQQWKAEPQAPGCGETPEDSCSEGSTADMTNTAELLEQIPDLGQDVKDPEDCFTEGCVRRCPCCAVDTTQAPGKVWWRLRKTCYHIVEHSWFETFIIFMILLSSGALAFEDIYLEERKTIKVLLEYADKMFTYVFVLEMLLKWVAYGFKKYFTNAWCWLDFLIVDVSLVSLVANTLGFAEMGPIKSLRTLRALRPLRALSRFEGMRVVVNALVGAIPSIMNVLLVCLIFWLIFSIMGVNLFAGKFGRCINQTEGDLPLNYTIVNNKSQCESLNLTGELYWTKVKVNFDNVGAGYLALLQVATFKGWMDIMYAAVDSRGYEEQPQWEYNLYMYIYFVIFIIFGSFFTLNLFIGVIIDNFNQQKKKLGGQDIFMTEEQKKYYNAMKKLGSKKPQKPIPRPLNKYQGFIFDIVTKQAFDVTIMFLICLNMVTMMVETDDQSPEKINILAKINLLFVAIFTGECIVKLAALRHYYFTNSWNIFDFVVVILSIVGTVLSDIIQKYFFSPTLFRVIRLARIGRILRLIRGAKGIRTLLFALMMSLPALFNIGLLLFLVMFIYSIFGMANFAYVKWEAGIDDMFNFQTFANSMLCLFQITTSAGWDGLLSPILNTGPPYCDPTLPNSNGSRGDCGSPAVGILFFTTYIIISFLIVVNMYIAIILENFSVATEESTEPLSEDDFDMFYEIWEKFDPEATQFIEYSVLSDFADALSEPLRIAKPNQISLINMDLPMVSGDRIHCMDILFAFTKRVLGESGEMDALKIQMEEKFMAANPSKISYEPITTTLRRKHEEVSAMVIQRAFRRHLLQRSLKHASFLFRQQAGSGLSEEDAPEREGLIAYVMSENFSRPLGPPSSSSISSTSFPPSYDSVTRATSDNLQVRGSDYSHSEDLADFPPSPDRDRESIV

The compound `Cn1nnc([C@H]2CCC[C@@H](c3nc(-c4ccc(C(=O)Nc5cc(C(F)(F)F)ccn5)cc4)c4c(N)nccn34)C2)n1` came in with an Inhibitory concentration in the data set on HeLa of 150 nM. Further, the apparent permeability (Papp) in data set [1] turned out to be 28 ×10⁻⁶ cm/s.
As for `CCOc1cc(C(=O)Nc2cc(C(F)(F)F)ccn2)ccc1-c1nc(C23CCC(C(=O)O)(CC2)CC3)n2ccnc(N)c12`, in [2], the clearance was 139 mL/min/kg. Moreover, the IC50 in [3] was more than 30000 nM; in data set [5], 15000 nM. The compound further had a bioavailability in data set [4] of 30%. The compound also showed a half-life in data set [6] of 0.8 h.
For the compound `C[C@]1(C(=O)O)CCC[C@@](C)(c2nc(-c3ccc(C(=O)Nc4cc(C(F)(F)F)ccn4)cc3)c3c(N)nccn23)C1`, the half-inhibitory concentration (IC50) in [7] was 18 nM; in data set [3], more than 30000 nM; in data set [5] it was 13000 nM; in [11], 0.1 nM. This compound also gave a half-life in data set [8] of 3 h. In addition, the Inhibitory concentration with HeLa is on record as 6073 nM. Further, in data set [9], the clearance came out at 9 mL/min/kg. In [4], the bioavailability was 22%. Also, the fraction unbound in data set [10] is 0.002.
Turning to `C[C@]1(C(=O)O)CC[C@@](C)(c2nc(-c3ccc(C(=O)Nc4cc(C(F)(F)F)ccn4)cc3)c3c(N)nccn32)CC1`, the half-inhibitory concentration (IC50) is 17 nM in data set [7]; more than 30000 nM in data set [3]; more than 60000 nM in data set [12]; 15000 nM in [5]; 1 nM in data set [11]. Further, the half-life in data set [8] is 5 h; in [13] it was 5.8 h. In addition, the Inhibitory concentration in the data set with HeLa was determined as 1452 nM. In addition, the clearance in [9] and in data set [14] was 13 mL/min/kg each time. For the same compound, the bioavailability in data set [4] came out at 75%; in [15], 77%. Further, the fraction unbound in [10] was found to be 0.001.
For the compound `Nc1nccn2c1c(-c1ccc(C(=O)Nc3cc(C(F)(F)F)ccn3)cc1)nc2[C@H]1CC[C@@H](C(=O)O)CC1`, the Inhibitory concentration with HeLa was more than 10000 nM.
Take `Nc1nccn2c([C@@H]3CCC[C@H](C(=O)O)C3)nc(-c3ccc(C(=O)Nc4cc(C(F)(F)F)ccn4)cc3)c12`: the clearance in [2] was 7.9 mL/min/kg. The figures for the half-maximal inhibitory concentration (IC50) in [3], in [12] and in data set [5] were more than 30000 nM, more than 60000 nM and more than 30000 nM, respectively. The compound also displayed a bioavailability in [4] of 2%. Moreover, the half-life in data set [6] was 1.2 h. For the same compound, in [1], the Papp is 7 ×10⁻⁶ cm/s.
`Nc1nccn2c([C@@H]3CCC[C@H](c4nnc[nH]4)C3)nc(-c3ccc(C(=O)Nc4cc(C(F)(F)F)ccn4)cc3)c12`: the Inhibitory concentration in the data set on HeLa is on record as 168 nM. Moreover, the Papp in data set [1] stood at 20 ×10⁻⁶ cm/s.
With `Nc1nccn2c([C@@H]3CCC[C@H](c4n[nH]c(=O)o4)C3)nc(-c3ccc(C(=O)Nc4cc(C(F)(F)F)ccn4)cc3)c12`, the Inhibitory concentration in the data set with HeLa came out at 44 nM.
On the same count and under the same terms, the figure for `Nc1nccn2c1c(-c1ccc(C(=O)Nc3cc(C(F)(F)F)ccn3)cc1)nc2[C@H]1CC[C@H](C(=O)O)CC1` is more than 10000 nM.
The compound `C[C@]1(C(=O)O)CCC[C@@H](c2nc(-c3ccc(C(=O)Nc4cc(C(F)(F)F)ccn4)cc3)c3c(N)nccn23)C1` (racemic) gave a fraction unbound in data set [10] of 0.002.
Compound `Nc1nccn2c(C34C5C6C3C3C4C5C63C(=O)O)nc(-c3ccc(C(=O)Nc4cc(C(F)(F)F)ccn4)cc3F)c12` (stereo unspecified) showed an Inhibitory concentration in the data set on HeLa of 812 nM.
In the data set with HeLa, `CS(=O)(=O)NC(=O)[C@H]1CCC[C@@H](c2nc(-c3ccc(C(=O)Nc4cc(C(F)(F)F)ccn4)cc3)c3c(N)nccn23)C1` came in with an Inhibitory concentration of 5600 nM. Besides, in data set [1], the apparent permeability (Papp) came out at 2 ×10⁻⁶ cm/s.
As for `C[C@]1(C(=O)O)CC[C@@](C)(c2nc(-c3ccc(C(=O)Nc4cc(C(F)(F)F)ccn4)cc3)c3c(N)nccn23)C1`, the IC50 in data set [7] is 8 nM; in [3], more than 30000 nM; in [5] it was 19000 nM; in [11], 0.2 nM. Also, the half-life in [8] was 2.4 h. This compound yielded an Inhibitory concentration in the data set with HeLa of 1699 nM. In addition, the clearance in data set [9] worked out at 2 mL/min/kg. The same compound returned a bioavailability in [4] of 39%. The same compound showed a fraction unbound in data set [10] of 0.001.
In the data set with HeLa, `C[C@H]1CC[C@@H](c2nc(-c3ccc(C(=O)Nc4cc(C(F)(F)F)ccn4)cc3F)c3c(N)nccn23)CN1C(=O)C1CC1` registered an Inhibitory concentration of 110 nM.
With `Nc1nccn2c1c(-c1ccc(C(=O)Nc3cc(C(F)(F)F)ccn3)cc1)nc2[C@]12CC[C@](C(=O)O)(CC1)C2`, the IC50 came out at 9 nM in data set [7] and 0.2 nM in [11]. In the data set with HeLa, this compound showed an Inhibitory concentration of 459 nM.
In the data set on HeLa, `NC(=O)[C@H]1CCC[C@@H](c2nc(-c3ccc(C(=O)Nc4cc(C(F)(F)F)ccn4)cc3)c3c(N)nccn23)C1` returned an Inhibitory concentration of 45 nM.
In the data set on HeLa, `Nc1nccn2c([C@@H]3CCC[C@H](c4nn[nH]n4)C3)nc(-c3ccc(C(=O)Nc4cc(C(F)(F)F)ccn4)cc3)c12` registered an Inhibitory concentration of more than 10000 nM. In [1], the Papp stood at 3 ×10⁻⁶ cm/s.
Regarding `CC(C)[C@@]1(C(=O)O)CC[C@@](C)(c2nc(-c3ccc(C(=O)Nc4cc(C(F)(F)F)ccn4)cc3)c3c(N)nccn23)C1`, the concentration for half-maximal inhibition (IC50) is 20 nM in [7]; more than 30000 nM in data set [3]; more than 60000 nM in [12]; 8000 nM in data set [5]; 0.4 nM in data set [11]. The compound further showed a half-life in [8] of 2 h. In the data set on HeLa, this compound returned an Inhibitory concentration of 4010 nM. Besides, the clearance in data set [9] was determined as 2.8 mL/min/kg. The bioavailability in data set [4] was determined as 44%. In addition, in [10], the free fraction (fraction unbound) amounted to 0.003.
For `Nc1nccn2c1c(-c1ccc(C(=O)Nc3cc(C(F)(F)F)ccn3)cc1)nc2[C@]12CCC[C@](C(=O)O)(CC1)CC2`, the IC50 worked out at 6 nM in data set [7] and 0.3 nM in data set [11]. For the same compound, in the data set with HeLa, the Inhibitory concentration was 274 nM.
Take `Nc1nccn2c(C34CC(C(=O)O)(C3)C4)nc(-c3ccc(C(=O)Nc4cc(C(F)(F)F)ccn4)cc3)c12`: the values for the IC50 in [7] and in data set [11] were 67 nM and 0.4 nM, respectively. In the data set with HeLa, this compound returned an Inhibitory concentration of 6476 nM.
In the data set with HeLa, `CC1(C(=O)O)CCC(c2nc(-c3ccc(C(=O)Nc4cc(C(F)(F)F)ccn4)cc3)c3c(N)nccn23)CC1` (stereo unspecified) returned an Inhibitory concentration of 2492 nM.
The same measure, in the same setting: the figure for `Nc1nccn2c([C@H]3C[C@@H]4[C@H](C3)[C@H]4C(=O)O)nc(-c3ccc(C(=O)Nc4cc(C(F)(F)F)ccn4)cc3)c12` is 1927 nM.
As for `Nc1nccn2c(C34CCC(C(=O)O)(CC3)CC4)nc(-c3ccc(C(=O)Nc4cc(C(F)(F)F)ccn4)cc3)c12`, the IC50 in [7] is 5 nM; in [11], 0.2 nM. Also, the Inhibitory concentration in the data set on HeLa turned out to be 308 nM.
In the data set with HeLa, `C[C@]1(C(=O)O)CC[C@@H](c2nc(-c3ccc(C(=O)Nc4cc(C(F)(F)F)ccn4)cc3)c3c(N)nccn23)C1` showed an Inhibitory concentration of 5396 nM.
With `Cn1nnnc1[C@H]1CCC[C@@H](c2nc(-c3ccc(C(=O)Nc4cc(C(F)(F)F)ccn4)cc3)c3c(N)nccn23)C1`, the Inhibitory concentration in the data set with HeLa came to 155 nM. In addition, the Papp in data set [1] worked out at 26 ×10⁻⁶ cm/s.
The compound `Nc1nccn2c([C@@H]3CCC[C@H](c4noc(=O)[nH]4)C3)nc(-c3ccc(C(=O)Nc4cc(C(F)(F)F)ccn4)cc3)c12` showed an Inhibitory concentration in the data set with HeLa of 9086 nM.

Source of the values: ChEMBL document CHEMBL3997842, “Discovery of novel BTK inhibitors with carboxylic acids” (Bioorg Med Chem Lett, 2017).
